Consider one substance from patent US20100099737A1, “COMPOSITIONS AND METHODS FOR TREATING MYELOSUPPRESSION” (priority 2006, published 2010).

Holding throughout (assay type): cell-based, human
Data set [1] relates to TF1 hemopoietic progenitor cell line. The data set is described as follows: Resistance of siRNA-transfected TF1 cells to chemotherapy drugs, [3H]-thymidine incorporation. The note with it: 4 days after transfection, cisplatin, doxorubicin and taxotere, complete growth media, read 2 days later, vs control siRNA, FIG. 2. On the procedure:
The TF1 hemopoietic progenitor cell line was transfected with SHIP1 siRNA or control siRNA as in FIG. 1. After 4 days, the cells were assessed at the indicated concentrations of cisplatin, doxorubicin and taxotere in the presence of complete growth media, [^3H]-thymidine incorporation was measured 2 days later.

Another data set relates to phospho PKB (Ser 473). The experiment in a line: Immunoblot of PKB / phospho PKB (Ser 473) in siRNA-transfected TF1 cells stimulated with GM-CSF. Particulars: vs siNS, FIG. 1F. An excerpt: TF1 cells transfected with siSHIP ([…], SEQ ID NO: 11) or siNS were stimulated with the cytokine GM-CSF for the indicated length of time.
Data set [2] concerns TF1 cells. The data set is described as follows: Proliferation of siRNA-transfected TF1 cells with IL-5, [3H]-thymidine incorporation. The note with it: sub-optimal levels of IL-5, 2 days after siRNA transfection, vs siNS, FIG. 1H. On the procedure: (§1) TF1 cells transfected with siSHIP (triangles) or siNS (squares) were cultured in the absence of growth factors and the total number of viable cells counted daily by trypan blue exclusion (FIG. 1G), TF1 cells were cultured in the presence of increasing concentrations of the growth promoting cytokine IL-5, 2 days after siRNA transfection. Proliferation of siSHIP (diamonds) and control siNS (solid diamonds) transfected TF-1 cells was measured by [^3H]-thymidine incorporation (FIG. 1H).

In data set [3] the test system is TF1 cells. The data set is described as follows: Survival of siRNA-transfected TF1 cells without growth factors, viable cells by trypan blue exclusion. Particulars: absence of growth factors, counted daily by trypan blue exclusion, vs siNS, FIG. 1G. How it is done:
as §1

“siSHIP: siRNA to human SHIP1 mRNA (NM_001017915), position 2437, AAGAGTCAGGAAGGAGAAAAT (SEQ ID NO: 11) (listed as DNA, chemistry not given here)”: the “resistance to chemotherapy drugs ([3H]-thymidine incorporation)” value in data set [1] is given as “significantly more resistant”. For the same substance, in the data set on phospho PKB (Ser 473), the “activation of the PIP3 dependent kinase PKB (phospho PKB Ser 473)” value is recorded as “enhanced the activation”. Besides, the “proliferation ([3H]-thymidine incorporation)” value in the data set with TF1 cells [2] was “considerably increased”. For the same substance, the “survival (total number of viable cells)” value in the data set on TF1 cells [3] is reported as “considerably increased survival”.
